In brackets after ≈: the same amount, converted by molar mass.
System: MCF7
Assay: Cytotoxicity against Homo sapiens (human) MCF7 cells after 48 hr by SRB assay
Type: functional, cell-based
Settings: MCF7, 48 h

How did the IC50 turn out when `N#Cc1c(-c2ccccc2)cc(Cl)n2c1nc1ccc(Cl)cc12` was run?
Its IC50 is 3.89 µg/mL (≈ 11.5 µM).

For `N#Cc1c(-c2ccccc2)cc(N2CCN(c3ccccc3F)CC2)n2c1nc1ccc(C(=O)O)cc12`, which IC50 is on record?
Its IC50 is 17.6 µg/mL (≈ 35.9 µM).

`Cc1c(CCCl)c(Cl)n2c(nc3ccc(Cl)cc32)c1C#N` was tested. Which IC50 did it give?
Its IC50 is 7.09 µg/mL (≈ 20.9 µM).

`Cc1cc(=O)n2c([nH]c3ccc(Cl)cc32)c1C#N` was tested. Which IC50 did it give?
Its IC50 is 3.43 µg/mL (≈ 13.3 µM).

`Cc1cc(=O)n2c([nH]c3ccc(C(=O)O)cc32)c1C#N` was tested. Which IC50 did it give?
The IC50 was 14.7 µg/mL (≈ 55 µM).

`N#Cc1c(-c2ccccc2)cc(=O)n2c1[nH]c1ccc(Cl)cc12` was tested. Which IC50 did it give?
The IC50 was 3.58 µg/mL (≈ 11.2 µM).

Which IC50 does the source give for `Cc1c(CCO)c(=O)n2c([nH]c3ccc(Cl)cc32)c1C#N` here?
Its IC50 is 14.6 µg/mL (≈ 48.5 µM).

For `Cc1c(CCN2CCN(c3ccccc3F)CC2)c(N2CCN(c3ccccc3F)CC2)n2c(nc3ccc(Cl)cc32)c1C#N`, which IC50 is on record?
Its IC50 is 14 µg/mL (≈ 22.4 µM).

Which IC50 does the source give for `Cc1c(CCN2CCN(c3ccccc3F)CC2)c(N2CCN(c3ccccc3F)CC2)n2c(nc3ccc(C(=O)O)cc32)c1C#N` here?
The IC50 was 9.9 µg/mL (≈ 15.6 µM).

`Cc1cc(Cl)n2c(nc3ccc(Cl)cc32)c1C#N` was tested. Which IC50 did it give?
Its IC50 is 8.61 µg/mL (≈ 31.2 µM).

For `Cc1cc(N2CCN(c3ccccc3F)CC2)n2c(nc3ccc(Cl)cc32)c1C#N`, which IC50 is on record?
Its IC50 is 5.72 µg/mL (≈ 13.6 µM).

With `Cc1cc(N2CCN(c3ccccc3F)CC2)n2c(nc3ccc(C(=O)O)cc32)c1C#N` as the compound, how does the IC50 read?
Its IC50 is 12.6 µg/mL (≈ 29.3 µM).

Which IC50 does the source give for `Cc1c(CCO)c(=O)n2c([nH]c3ccc(C(=O)O)cc32)c1C#N` here?
Its IC50 is 10.5 µg/mL (≈ 33.9 µM).

Which IC50 does the source give for `N#Cc1c(-c2ccccc2)cc(Cl)n2c1nc1ccc(C(=O)O)cc12` here?
The IC50 was 3.58 µg/mL (≈ 10.3 µM).

With `Cc1cc(Cl)n2c(nc3ccc(C(=O)O)cc32)c1C#N` as the compound, how does the IC50 read?
The IC50 was 12.8 µg/mL (≈ 44.9 µM).

With `N#Cc1c(-c2ccccc2)cc(=O)n2c1[nH]c1ccc(C(=O)O)cc12` as the compound, how does the IC50 read?
Its IC50 is 3.99 µg/mL (≈ 12.1 µM).

With `N#Cc1c(-c2ccccc2)cc(N2CCN(c3ccccc3F)CC2)n2c1nc1ccc(Cl)cc12` as the compound, how does the IC50 read?
The IC50 was 10.4 µg/mL (≈ 21.6 µM).

`Cc1c(CCCl)c(Cl)n2c(nc3ccc(C(=O)O)cc32)c1C#N` was tested. Which IC50 did it give?
Its IC50 is 9.07 µg/mL (≈ 26 µM).
